Results taken from ChEMBL document CHEMBL5724914, “Linking interpersonal differences in gut microbiota composition and drug biotransformation activity” (2024).

Conditions: human gut metagenome, 24 h, 2 µM
Note: call rule not given here.

**Q.** With `CC(CN(C)C)CN1c2ccccc2CCc2ccccc21.O=C(O)/C=C\C(=O)O` (stereo not given) [TRIMIPRAMINE MALEATE] as the molecule, how does the “Bacterial Biotransformation” value read?
**A.** Compound metabolized

**Q.** Which “Bacterial Biotransformation” value does the source give for `CN1CCC(=C2c3ccccc3CCc3cccnc32)CC1.O=C(O)/C=C\C(=O)O.O=C(O)/C=C\C(=O)O` [AZATADINE MALEATE] here?
**A.** Compound NOT metabolized

Assay: (§1) The drug is tested on Z-006 corresponding to mouse gut metagenome with ENA study accession number: PRJEB37062 and ENA sample accession number: ERS12561806 for biotransformation under anaerobic condition. The drug concentrations were measured over 9 timepoints collected between 0 and 24 hours of incubation by liquid-chromatography-coupled mass spectrometry (LC–MS)
Conditions: 2 µM

**Q.** For `CC(CN(C)C)CN1c2ccccc2CCc2ccccc21.O=C(O)/C=C\C(=O)O` (stereo not given) [TRIMIPRAMINE MALEATE], which “Bacterial Biotransformation” value is on record?
**A.** Compound NOT metabolized

**Q.** For `CN1CCC(=C2c3ccccc3CCc3cccnc32)CC1.O=C(O)/C=C\C(=O)O.O=C(O)/C=C\C(=O)O` [AZATADINE MALEATE], which “Bacterial Biotransformation” value is on record?
**A.** Compound NOT metabolized

Assay: as §1, with “WLS-027” for “Z-006”, “human” for “mouse”, “ERS12561744” for “ERS12561806”
Conditions: 2 µM

**Q.** With `CC(CN(C)C)CN1c2ccccc2CCc2ccccc21.O=C(O)/C=C\C(=O)O` (stereo not given) [TRIMIPRAMINE MALEATE] as the molecule, how does the “Bacterial Biotransformation” value read?
**A.** Compound metabolized

**Q.** Which “Bacterial Biotransformation” value does the source give for `CN1CCC(=C2c3ccccc3CCc3cccnc32)CC1.O=C(O)/C=C\C(=O)O.O=C(O)/C=C\C(=O)O` [AZATADINE MALEATE] here?
**A.** Compound NOT metabolized

Conditions: human gut metagenome, 24 h, 2 µM
Remark: another data set of the same source

**Q.** Which “Bacterial Biotransformation” value does the source give for `CC(CN(C)C)CN1c2ccccc2CCc2ccccc21.O=C(O)/C=C\C(=O)O` (stereo not given) [TRIMIPRAMINE MALEATE] here?
**A.** Compound metabolized

**Q.** Which “Bacterial Biotransformation” value does the source give for `CN1CCC(=C2c3ccccc3CCc3cccnc32)CC1.O=C(O)/C=C\C(=O)O.O=C(O)/C=C\C(=O)O` [AZATADINE MALEATE] here?
**A.** Compound NOT metabolized

Conditions: human gut metagenome, 24 h, 2 µM
Remark: another data set of the same source

**Q.** With `CC(CN(C)C)CN1c2ccccc2CCc2ccccc21.O=C(O)/C=C\C(=O)O` (stereo not given) [TRIMIPRAMINE MALEATE] as the molecule, how does the “Bacterial Biotransformation” value read?
**A.** Compound NOT metabolized

**Q.** For `CN1CCC(=C2c3ccccc3CCc3cccnc32)CC1.O=C(O)/C=C\C(=O)O.O=C(O)/C=C\C(=O)O` [AZATADINE MALEATE], which “Bacterial Biotransformation” value is on record?
**A.** Compound NOT metabolized

Assay: as §1, with “Z-011” for “Z-006”, “ERS12561811” for “ERS12561806”
Conditions: 2 µM

**Q.** Which “Bacterial Biotransformation” value does the source give for `CC(CN(C)C)CN1c2ccccc2CCc2ccccc21.O=C(O)/C=C\C(=O)O` (stereo not given) [TRIMIPRAMINE MALEATE] here?
**A.** Compound NOT metabolized

**Q.** For `CN1CCC(=C2c3ccccc3CCc3cccnc32)CC1.O=C(O)/C=C\C(=O)O.O=C(O)/C=C\C(=O)O` [AZATADINE MALEATE], which “Bacterial Biotransformation” value is on record?
**A.** Compound NOT metabolized

Assay: as §1, with “Z-023” for “Z-006”, “to” for “to mouse gut”, “ERS12561822” for “ERS12561806”
Conditions: 2 µM

**Q.** Which “Bacterial Biotransformation” value does the source give for `CC(CN(C)C)CN1c2ccccc2CCc2ccccc21.O=C(O)/C=C\C(=O)O` (stereo not given) [TRIMIPRAMINE MALEATE] here?
**A.** Compound metabolized

**Q.** For `CN1CCC(=C2c3ccccc3CCc3cccnc32)CC1.O=C(O)/C=C\C(=O)O.O=C(O)/C=C\C(=O)O` [AZATADINE MALEATE], which “Bacterial Biotransformation” value is on record?
**A.** Compound NOT metabolized

Assay: as §1, with “WLS-052” for “Z-006”, “human” for “mouse”, “ERS12561747” for “ERS12561806”
Conditions: 2 µM

**Q.** With `CC(CN(C)C)CN1c2ccccc2CCc2ccccc21.O=C(O)/C=C\C(=O)O` (stereo not given) [TRIMIPRAMINE MALEATE] as the molecule, how does the “Bacterial Biotransformation” value read?
**A.** Compound NOT metabolized

**Q.** Which “Bacterial Biotransformation” value does the source give for `CN1CCC(=C2c3ccccc3CCc3cccnc32)CC1.O=C(O)/C=C\C(=O)O.O=C(O)/C=C\C(=O)O` [AZATADINE MALEATE] here?
**A.** Compound NOT metabolized

Conditions: human gut metagenome, 24 h, 2 µM
Remark: another data set of the same source

**Q.** With `CC(CN(C)C)CN1c2ccccc2CCc2ccccc21.O=C(O)/C=C\C(=O)O` (stereo not given) [TRIMIPRAMINE MALEATE] as the molecule, how does the “Bacterial Biotransformation” value read?
**A.** Compound metabolized

**Q.** For `CN1CCC(=C2c3ccccc3CCc3cccnc32)CC1.O=C(O)/C=C\C(=O)O.O=C(O)/C=C\C(=O)O` [AZATADINE MALEATE], which “Bacterial Biotransformation” value is on record?
**A.** Compound NOT metabolized

Assay: as §1, with “WLS-098” for “Z-006”, “human” for “mouse”, “ERS12561754” for “ERS12561806”
Conditions: 2 µM

**Q.** Which “Bacterial Biotransformation” value does the source give for `CC(CN(C)C)CN1c2ccccc2CCc2ccccc21.O=C(O)/C=C\C(=O)O` (stereo not given) [TRIMIPRAMINE MALEATE] here?
**A.** Compound metabolized

**Q.** Which “Bacterial Biotransformation” value does the source give for `CN1CCC(=C2c3ccccc3CCc3cccnc32)CC1.O=C(O)/C=C\C(=O)O.O=C(O)/C=C\C(=O)O` [AZATADINE MALEATE] here?
**A.** Compound NOT metabolized

Assay: as §1, with “Z-021” for “Z-006”, “to” for “to mouse gut”, “ERS12561820” for “ERS12561806”
Conditions: 2 µM

**Q.** With `CC(CN(C)C)CN1c2ccccc2CCc2ccccc21.O=C(O)/C=C\C(=O)O` (stereo not given) [TRIMIPRAMINE MALEATE] as the molecule, how does the “Bacterial Biotransformation” value read?
**A.** Compound NOT metabolized

**Q.** For `CN1CCC(=C2c3ccccc3CCc3cccnc32)CC1.O=C(O)/C=C\C(=O)O.O=C(O)/C=C\C(=O)O` [AZATADINE MALEATE], which “Bacterial Biotransformation” value is on record?
**A.** Compound NOT metabolized

Conditions: human gut metagenome, 24 h, 2 µM
Remark: another data set of the same source

**Q.** With `CC(CN(C)C)CN1c2ccccc2CCc2ccccc21.O=C(O)/C=C\C(=O)O` (stereo not given) [TRIMIPRAMINE MALEATE] as the molecule, how does the “Bacterial Biotransformation” value read?
**A.** Compound metabolized

**Q.** Which “Bacterial Biotransformation” value does the source give for `CN1CCC(=C2c3ccccc3CCc3cccnc32)CC1.O=C(O)/C=C\C(=O)O.O=C(O)/C=C\C(=O)O` [AZATADINE MALEATE] here?
**A.** Compound NOT metabolized

Assay: as §1, with “WLS-010” for “Z-006”, “human” for “mouse”, “ERS12561743” for “ERS12561806”
Conditions: 2 µM

**Q.** Which “Bacterial Biotransformation” value does the source give for `CC(CN(C)C)CN1c2ccccc2CCc2ccccc21.O=C(O)/C=C\C(=O)O` (stereo not given) [TRIMIPRAMINE MALEATE] here?
**A.** Compound metabolized

**Q.** For `CN1CCC(=C2c3ccccc3CCc3cccnc32)CC1.O=C(O)/C=C\C(=O)O.O=C(O)/C=C\C(=O)O` [AZATADINE MALEATE], which “Bacterial Biotransformation” value is on record?
**A.** Compound NOT metabolized

Assay: as §1, with “Z-025” for “Z-006”, “rabbit” for “mouse”, “ERS12561824” for “ERS12561806”
Conditions: 2 µM

**Q.** For `CC(CN(C)C)CN1c2ccccc2CCc2ccccc21.O=C(O)/C=C\C(=O)O` (stereo not given) [TRIMIPRAMINE MALEATE], which “Bacterial Biotransformation” value is on record?
**A.** Compound NOT metabolized

**Q.** Which “Bacterial Biotransformation” value does the source give for `CN1CCC(=C2c3ccccc3CCc3cccnc32)CC1.O=C(O)/C=C\C(=O)O.O=C(O)/C=C\C(=O)O` [AZATADINE MALEATE] here?
**A.** Compound NOT metabolized

Assay: as §1, with “Z-022” for “Z-006”, “ERS12561821” for “ERS12561806”
Conditions: 2 µM

**Q.** With `CC(CN(C)C)CN1c2ccccc2CCc2ccccc21.O=C(O)/C=C\C(=O)O` (stereo not given) [TRIMIPRAMINE MALEATE] as the molecule, how does the “Bacterial Biotransformation” value read?
**A.** Compound NOT metabolized

**Q.** Which “Bacterial Biotransformation” value does the source give for `CN1CCC(=C2c3ccccc3CCc3cccnc32)CC1.O=C(O)/C=C\C(=O)O.O=C(O)/C=C\C(=O)O` [AZATADINE MALEATE] here?
**A.** Compound NOT metabolized

Conditions: human gut metagenome, 24 h, 2 µM
Remark: another data set of the same source

**Q.** Which “Bacterial Biotransformation” value does the source give for `CC(CN(C)C)CN1c2ccccc2CCc2ccccc21.O=C(O)/C=C\C(=O)O` (stereo not given) [TRIMIPRAMINE MALEATE] here?
**A.** Compound NOT metabolized

**Q.** With `CN1CCC(=C2c3ccccc3CCc3cccnc32)CC1.O=C(O)/C=C\C(=O)O.O=C(O)/C=C\C(=O)O` [AZATADINE MALEATE] as the molecule, how does the “Bacterial Biotransformation” value read?
**A.** Compound NOT metabolized

Conditions: human gut metagenome, 24 h, 2 µM
Remark: another data set of the same source

**Q.** Which “Bacterial Biotransformation” value does the source give for `CC(CN(C)C)CN1c2ccccc2CCc2ccccc21.O=C(O)/C=C\C(=O)O` (stereo not given) [TRIMIPRAMINE MALEATE] here?
**A.** Compound metabolized

**Q.** Which “Bacterial Biotransformation” value does the source give for `CN1CCC(=C2c3ccccc3CCc3cccnc32)CC1.O=C(O)/C=C\C(=O)O.O=C(O)/C=C\C(=O)O` [AZATADINE MALEATE] here?
**A.** Compound NOT metabolized

Conditions: human gut metagenome, 24 h, 2 µM
Remark: another data set of the same source

**Q.** Which “Bacterial Biotransformation” value does the source give for `CC(CN(C)C)CN1c2ccccc2CCc2ccccc21.O=C(O)/C=C\C(=O)O` (stereo not given) [TRIMIPRAMINE MALEATE] here?
**A.** Compound NOT metabolized

**Q.** With `CN1CCC(=C2c3ccccc3CCc3cccnc32)CC1.O=C(O)/C=C\C(=O)O.O=C(O)/C=C\C(=O)O` [AZATADINE MALEATE] as the molecule, how does the “Bacterial Biotransformation” value read?
**A.** Compound NOT metabolized

Assay: as §1, with “WLS-039” for “Z-006”, “human” for “mouse”, “ERS12561746” for “ERS12561806”
Conditions: 2 µM

**Q.** Which “Bacterial Biotransformation” value does the source give for `CC(CN(C)C)CN1c2ccccc2CCc2ccccc21.O=C(O)/C=C\C(=O)O` (stereo not given) [TRIMIPRAMINE MALEATE] here?
**A.** Compound metabolized

**Q.** For `CN1CCC(=C2c3ccccc3CCc3cccnc32)CC1.O=C(O)/C=C\C(=O)O.O=C(O)/C=C\C(=O)O` [AZATADINE MALEATE], which “Bacterial Biotransformation” value is on record?
**A.** Compound NOT metabolized

Conditions: human gut metagenome, 24 h, 2 µM
Remark: another data set of the same source

**Q.** For `CC(CN(C)C)CN1c2ccccc2CCc2ccccc21.O=C(O)/C=C\C(=O)O` (stereo not given) [TRIMIPRAMINE MALEATE], which “Bacterial Biotransformation” value is on record?
**A.** Compound NOT metabolized

**Q.** For `CN1CCC(=C2c3ccccc3CCc3cccnc32)CC1.O=C(O)/C=C\C(=O)O.O=C(O)/C=C\C(=O)O` [AZATADINE MALEATE], which “Bacterial Biotransformation” value is on record?
**A.** Compound NOT metabolized
